{
  "source": "ChEMBL document CHEMBL5678818",
  "about": "“Discovery of potent SOS1 inhibitors that block RAS activation via disruption of the RAS-SOS1 interaction” (Proc Natl Acad Sci U S A, 2019)",
  "key": {"[1]": {"molecular_target": "STE20-like serine/threonine-protein kinase (Homo sapiens) (UniProt Q9H2G2)", "sequence (Q9H2G2 whole entry, looked up)": "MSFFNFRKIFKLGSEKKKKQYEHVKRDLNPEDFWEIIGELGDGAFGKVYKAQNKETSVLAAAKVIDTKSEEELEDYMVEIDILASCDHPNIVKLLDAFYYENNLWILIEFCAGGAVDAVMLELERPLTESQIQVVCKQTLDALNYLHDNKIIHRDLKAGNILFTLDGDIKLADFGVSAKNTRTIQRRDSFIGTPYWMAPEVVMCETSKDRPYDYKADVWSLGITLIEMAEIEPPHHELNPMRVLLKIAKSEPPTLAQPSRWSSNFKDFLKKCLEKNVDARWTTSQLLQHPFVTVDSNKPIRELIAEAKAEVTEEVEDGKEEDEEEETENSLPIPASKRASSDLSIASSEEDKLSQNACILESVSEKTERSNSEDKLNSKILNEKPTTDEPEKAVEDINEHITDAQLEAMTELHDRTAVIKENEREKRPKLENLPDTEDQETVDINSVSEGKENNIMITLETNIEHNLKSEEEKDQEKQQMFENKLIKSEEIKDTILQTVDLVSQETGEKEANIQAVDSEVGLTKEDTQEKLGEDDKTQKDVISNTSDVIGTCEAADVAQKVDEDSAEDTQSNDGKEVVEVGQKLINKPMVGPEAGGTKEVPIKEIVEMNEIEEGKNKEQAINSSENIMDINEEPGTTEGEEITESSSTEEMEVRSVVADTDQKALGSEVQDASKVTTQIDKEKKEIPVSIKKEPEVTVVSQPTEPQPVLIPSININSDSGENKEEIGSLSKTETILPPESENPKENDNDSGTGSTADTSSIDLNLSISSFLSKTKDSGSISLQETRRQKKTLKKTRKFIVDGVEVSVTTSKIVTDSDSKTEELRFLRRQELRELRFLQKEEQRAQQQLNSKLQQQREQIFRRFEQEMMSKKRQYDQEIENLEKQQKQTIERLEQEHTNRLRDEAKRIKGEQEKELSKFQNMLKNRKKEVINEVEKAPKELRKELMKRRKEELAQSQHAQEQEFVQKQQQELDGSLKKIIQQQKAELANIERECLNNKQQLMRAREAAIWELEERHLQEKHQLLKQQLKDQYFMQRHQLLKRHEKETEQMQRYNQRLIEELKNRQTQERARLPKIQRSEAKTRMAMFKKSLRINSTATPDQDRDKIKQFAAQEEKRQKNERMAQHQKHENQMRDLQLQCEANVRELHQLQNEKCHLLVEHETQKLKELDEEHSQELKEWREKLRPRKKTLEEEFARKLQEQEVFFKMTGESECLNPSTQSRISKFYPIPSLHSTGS", "test": "Inhibition of SLK (unknown origin) assessed as residual activity at 100 nM by KINOMEscan analysis relative to control"}, "[2]": {"molecular_target": "Rho-associated protein kinase 2 (Homo sapiens) (UniProt O75116)", "sequence (O75116 whole entry, looked up)": "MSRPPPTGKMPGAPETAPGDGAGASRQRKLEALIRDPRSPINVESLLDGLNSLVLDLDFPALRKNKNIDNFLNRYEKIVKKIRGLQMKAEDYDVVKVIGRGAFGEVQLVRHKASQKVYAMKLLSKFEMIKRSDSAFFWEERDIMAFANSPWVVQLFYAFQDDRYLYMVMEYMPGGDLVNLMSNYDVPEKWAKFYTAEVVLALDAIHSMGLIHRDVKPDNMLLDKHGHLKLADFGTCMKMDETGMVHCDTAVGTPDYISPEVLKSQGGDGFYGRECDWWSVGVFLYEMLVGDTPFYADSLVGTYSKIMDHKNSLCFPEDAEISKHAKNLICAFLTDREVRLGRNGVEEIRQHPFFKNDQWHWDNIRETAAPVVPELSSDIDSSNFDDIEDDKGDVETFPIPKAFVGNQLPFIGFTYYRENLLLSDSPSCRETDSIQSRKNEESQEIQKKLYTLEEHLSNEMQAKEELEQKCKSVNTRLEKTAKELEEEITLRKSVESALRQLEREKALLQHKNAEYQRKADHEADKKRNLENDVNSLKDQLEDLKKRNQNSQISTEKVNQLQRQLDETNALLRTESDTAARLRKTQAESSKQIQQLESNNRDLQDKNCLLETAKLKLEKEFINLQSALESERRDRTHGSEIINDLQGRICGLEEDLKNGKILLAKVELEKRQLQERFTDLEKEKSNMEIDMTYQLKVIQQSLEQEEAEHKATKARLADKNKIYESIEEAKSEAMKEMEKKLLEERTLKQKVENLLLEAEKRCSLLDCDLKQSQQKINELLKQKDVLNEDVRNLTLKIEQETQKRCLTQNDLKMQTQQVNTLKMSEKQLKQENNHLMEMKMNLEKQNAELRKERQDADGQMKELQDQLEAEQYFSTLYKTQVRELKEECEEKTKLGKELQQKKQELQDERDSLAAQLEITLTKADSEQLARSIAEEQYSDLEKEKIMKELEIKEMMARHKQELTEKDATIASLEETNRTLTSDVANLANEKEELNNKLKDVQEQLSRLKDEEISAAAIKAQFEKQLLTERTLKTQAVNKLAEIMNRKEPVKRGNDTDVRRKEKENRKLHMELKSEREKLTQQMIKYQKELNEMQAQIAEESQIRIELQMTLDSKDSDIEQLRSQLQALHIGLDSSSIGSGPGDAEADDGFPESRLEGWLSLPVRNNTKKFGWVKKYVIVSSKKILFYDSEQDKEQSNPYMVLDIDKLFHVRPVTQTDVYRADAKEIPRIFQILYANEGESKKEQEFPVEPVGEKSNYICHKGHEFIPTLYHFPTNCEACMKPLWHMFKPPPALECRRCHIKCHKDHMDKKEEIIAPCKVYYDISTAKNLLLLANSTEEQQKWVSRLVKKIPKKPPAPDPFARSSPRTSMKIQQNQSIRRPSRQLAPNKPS", "test": "Inhibition of ROCK2 (unknown origin) assessed as residual activity at 100 nM by KINOMEscan analysis relative to control"}, "[3]": {"molecular_target": "T1, Receptor-interacting serine/threonine-protein kinase 1 (Homo sapiens) (UniProt Q13546)", "T1 sequence (whole entry)": "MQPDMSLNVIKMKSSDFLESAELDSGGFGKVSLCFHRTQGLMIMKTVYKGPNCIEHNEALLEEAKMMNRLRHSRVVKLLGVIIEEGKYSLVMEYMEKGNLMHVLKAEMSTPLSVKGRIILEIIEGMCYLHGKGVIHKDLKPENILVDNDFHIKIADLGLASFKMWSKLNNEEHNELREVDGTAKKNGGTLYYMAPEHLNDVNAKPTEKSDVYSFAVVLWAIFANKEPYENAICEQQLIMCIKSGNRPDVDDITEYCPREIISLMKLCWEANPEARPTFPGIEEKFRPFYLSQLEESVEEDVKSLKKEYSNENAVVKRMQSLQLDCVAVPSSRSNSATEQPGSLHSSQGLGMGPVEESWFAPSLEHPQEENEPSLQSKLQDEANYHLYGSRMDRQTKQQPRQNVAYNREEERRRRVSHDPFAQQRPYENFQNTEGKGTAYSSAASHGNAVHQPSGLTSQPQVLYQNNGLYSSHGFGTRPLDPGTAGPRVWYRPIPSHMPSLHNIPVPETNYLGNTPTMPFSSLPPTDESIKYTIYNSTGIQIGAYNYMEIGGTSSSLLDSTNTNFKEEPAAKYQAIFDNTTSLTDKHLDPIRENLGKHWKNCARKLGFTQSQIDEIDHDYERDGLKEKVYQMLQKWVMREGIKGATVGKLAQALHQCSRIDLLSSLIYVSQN", "test": "Inhibition of RIPK1 (unknown origin) assessed as residual activity at 100 nM by KINOMEscan analysis relative to control"}, "[4]": {"molecular_target": "Casein kinase II subunit alpha' (Homo sapiens) (UniProt P19784)", "sequence (P19784 whole entry, looked up)": "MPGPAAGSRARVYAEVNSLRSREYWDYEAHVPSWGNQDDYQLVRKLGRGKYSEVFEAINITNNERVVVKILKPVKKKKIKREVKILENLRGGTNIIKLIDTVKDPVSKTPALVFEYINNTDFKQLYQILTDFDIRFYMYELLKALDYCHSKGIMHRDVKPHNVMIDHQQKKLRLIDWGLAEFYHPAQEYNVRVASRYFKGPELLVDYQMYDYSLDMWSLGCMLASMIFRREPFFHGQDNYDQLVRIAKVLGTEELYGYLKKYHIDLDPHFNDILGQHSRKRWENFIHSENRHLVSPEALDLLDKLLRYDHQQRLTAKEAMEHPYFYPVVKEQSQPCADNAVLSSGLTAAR", "test": "Inhibition of CSNK2A2 (unknown origin) assessed as residual activity at 100 nM by KINOMEscan analysis relative to control"}, "[5]": {"molecular_target": "T2, Son of sevenless homolog 1 (Homo sapiens) (UniProt Q07889)", "T2 sequence (whole entry)": "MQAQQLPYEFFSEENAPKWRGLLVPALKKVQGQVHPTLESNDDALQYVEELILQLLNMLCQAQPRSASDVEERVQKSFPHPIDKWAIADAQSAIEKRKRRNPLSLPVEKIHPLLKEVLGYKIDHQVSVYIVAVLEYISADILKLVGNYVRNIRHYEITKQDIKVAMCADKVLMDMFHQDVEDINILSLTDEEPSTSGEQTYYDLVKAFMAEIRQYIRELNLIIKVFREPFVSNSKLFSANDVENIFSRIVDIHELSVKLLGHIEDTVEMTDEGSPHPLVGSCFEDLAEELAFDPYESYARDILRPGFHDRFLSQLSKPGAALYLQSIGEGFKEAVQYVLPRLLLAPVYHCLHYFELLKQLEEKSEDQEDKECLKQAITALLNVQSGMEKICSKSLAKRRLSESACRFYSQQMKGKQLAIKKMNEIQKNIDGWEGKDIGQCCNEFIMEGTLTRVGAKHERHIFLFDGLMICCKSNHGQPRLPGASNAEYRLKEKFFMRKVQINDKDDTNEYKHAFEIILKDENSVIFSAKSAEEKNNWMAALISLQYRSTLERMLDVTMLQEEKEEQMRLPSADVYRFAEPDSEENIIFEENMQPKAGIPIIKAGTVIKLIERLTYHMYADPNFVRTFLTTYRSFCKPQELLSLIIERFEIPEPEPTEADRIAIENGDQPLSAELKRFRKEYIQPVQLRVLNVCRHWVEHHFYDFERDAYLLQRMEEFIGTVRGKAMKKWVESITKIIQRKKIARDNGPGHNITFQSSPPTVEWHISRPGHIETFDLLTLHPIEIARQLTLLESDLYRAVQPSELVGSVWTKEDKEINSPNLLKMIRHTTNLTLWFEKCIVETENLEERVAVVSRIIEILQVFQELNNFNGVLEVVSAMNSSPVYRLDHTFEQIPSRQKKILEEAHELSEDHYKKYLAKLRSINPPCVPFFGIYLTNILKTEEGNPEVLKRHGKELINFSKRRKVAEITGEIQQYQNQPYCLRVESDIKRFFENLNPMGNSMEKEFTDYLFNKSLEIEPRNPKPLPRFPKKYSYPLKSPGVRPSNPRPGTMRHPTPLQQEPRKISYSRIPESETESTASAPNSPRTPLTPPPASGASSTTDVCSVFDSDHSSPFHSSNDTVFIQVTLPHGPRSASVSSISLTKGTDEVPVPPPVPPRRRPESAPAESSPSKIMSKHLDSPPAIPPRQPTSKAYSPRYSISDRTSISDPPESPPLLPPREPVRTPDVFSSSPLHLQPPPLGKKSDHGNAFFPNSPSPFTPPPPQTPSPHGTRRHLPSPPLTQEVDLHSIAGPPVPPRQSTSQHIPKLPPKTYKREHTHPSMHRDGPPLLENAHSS", "test": "Binding affinity to N-terminal His10-tagged wild-type recombinant human SOS1 catalytic domain (564 to 1049 residues) expressed in Escherichia coli assessed as binding at 1:1 stoichiometry at 100 uM incubated for 1 hr by native MS analysis"}},
  "note": "Activity calls are given as the source filed them. No cut-off for these calls is given here.",
  "data": [
    {"molecule": "COc1cc2ncnc(N[C@H](C)c3cccc4ccccc34)c2cc1OC", "values": [
      {"measurement": "Activity", "setting": "[1]", "result": 100, "unit": "%"},
      {"measurement": "Activity", "setting": "[2]", "result": 87, "unit": "%"},
      {"measurement": "Activity", "setting": "[3]", "result": 23, "unit": "%"},
      {"measurement": "Activity", "setting": "[4]", "result": 87, "unit": "%"},
      {"measurement": "Activity", "setting": "[5]", "result": "Active"}
    ]}
  ]
}
